Assay results from ChEMBL document CHEMBL1150661, “Panepophenanthrin, from a mushroom strain, a novel inhibitor of the ubiquitin-activating enzyme” (J Nat Prod, 2002).

Molecular target: T1, Ubiquitin-like modifier-activating enzyme 1 (Homo sapiens, UniProt P22314)
T1 sequence (P22314 whole entry): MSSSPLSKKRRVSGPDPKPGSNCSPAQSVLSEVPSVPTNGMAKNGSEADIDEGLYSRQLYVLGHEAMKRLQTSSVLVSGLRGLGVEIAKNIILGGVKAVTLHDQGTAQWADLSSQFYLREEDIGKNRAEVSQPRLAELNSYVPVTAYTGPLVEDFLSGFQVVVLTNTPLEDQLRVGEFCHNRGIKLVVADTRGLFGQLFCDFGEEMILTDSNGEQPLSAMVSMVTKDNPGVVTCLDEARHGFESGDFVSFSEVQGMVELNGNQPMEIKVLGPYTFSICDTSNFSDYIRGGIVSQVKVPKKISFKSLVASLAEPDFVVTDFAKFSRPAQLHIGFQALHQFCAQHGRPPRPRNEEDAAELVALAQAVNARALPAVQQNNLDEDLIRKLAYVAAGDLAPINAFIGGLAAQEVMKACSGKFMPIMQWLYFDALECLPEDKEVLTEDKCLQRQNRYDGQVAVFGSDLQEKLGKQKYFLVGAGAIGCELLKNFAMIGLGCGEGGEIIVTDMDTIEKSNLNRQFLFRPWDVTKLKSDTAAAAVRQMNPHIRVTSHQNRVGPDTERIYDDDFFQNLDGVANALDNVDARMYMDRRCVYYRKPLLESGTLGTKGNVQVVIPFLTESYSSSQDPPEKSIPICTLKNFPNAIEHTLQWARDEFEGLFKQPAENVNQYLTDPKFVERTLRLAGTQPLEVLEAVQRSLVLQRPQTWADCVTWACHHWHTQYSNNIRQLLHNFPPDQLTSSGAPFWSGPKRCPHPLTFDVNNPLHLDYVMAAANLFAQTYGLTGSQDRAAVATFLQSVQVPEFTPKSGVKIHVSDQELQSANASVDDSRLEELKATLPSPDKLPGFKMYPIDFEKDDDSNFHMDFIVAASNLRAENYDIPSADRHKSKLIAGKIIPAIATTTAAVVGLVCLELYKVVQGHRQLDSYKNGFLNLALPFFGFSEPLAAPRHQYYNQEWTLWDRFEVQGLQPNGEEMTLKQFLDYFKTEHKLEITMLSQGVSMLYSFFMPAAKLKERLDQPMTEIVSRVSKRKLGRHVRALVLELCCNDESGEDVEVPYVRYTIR
Assay: Inhibition of human recombinant E1-ubiquitin complex formation

IC50: 40.4 µM
Structure (SMILES): CC(C)(O)/C=C/[C@@]12[C@H]3[C@@H](O)[C@@H]4O[C@@H]4[C@]1(O)OC(C)(C)[C@@H]2C=C1C(=O)[C@H]2O[C@H]2[C@H](O)[C@H]13 [PANEPOPHENANTHRIN]
